Reference: patent US20260042755A1, “GPR6 INVERSE AGONISTS” (MapLight Therapeutics, Inc., priority 2022, published 2026)

How the values were obtained:
[1] = molecular target: T1, GPR6 (Homo sapiens, UniProt P46095); assay: GPR6 antagonist functional cAMP assay (LANCE Ultra cAMP TR-FRET, CHO cells stably expressing GPR6); type: cell-based; conditions: CHO cells stably expressing GPR6, cAMP assay
T1 construct: expressed in transfected cells; host or cells: CHO cells
Method in brief: (§1)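 Cells in Krebs-Ringer buffer with 0.1% BSA and 150 μM Ro 20-1724 PDE inhibitor were exposed to compounds for 45 min at 37 °C (0.1% DMSO). cAMP was read by TR-FRET at 665 nm; IC50s came from 4-parameter fits normalized to DMSO and reference compound.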

[2] = molecular target: T2, GPR3 (Homo sapiens, UniProt P46089); assay: GPR3 antagonist functional cAMP assay (LANCE Ultra cAMP TR-FRET, CHO cells stably expressing GPR3); type: cell-based; conditions: CHO cells stably expressing GPR3, cAMP assay
T2 construct: expressed in transfected cells; host or cells: CHO cells
Method in brief: as §1

T1 sequence (P46095 whole entry): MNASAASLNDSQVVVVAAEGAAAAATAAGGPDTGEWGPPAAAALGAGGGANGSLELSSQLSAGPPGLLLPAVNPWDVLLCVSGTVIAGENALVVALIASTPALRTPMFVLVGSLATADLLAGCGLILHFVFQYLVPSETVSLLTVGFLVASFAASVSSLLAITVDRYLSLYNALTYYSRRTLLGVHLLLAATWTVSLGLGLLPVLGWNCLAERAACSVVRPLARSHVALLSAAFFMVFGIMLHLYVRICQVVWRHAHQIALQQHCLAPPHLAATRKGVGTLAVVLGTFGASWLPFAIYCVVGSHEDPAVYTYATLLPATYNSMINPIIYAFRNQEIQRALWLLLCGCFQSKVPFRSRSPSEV
T2 sequence (P46089 whole entry, species assumed): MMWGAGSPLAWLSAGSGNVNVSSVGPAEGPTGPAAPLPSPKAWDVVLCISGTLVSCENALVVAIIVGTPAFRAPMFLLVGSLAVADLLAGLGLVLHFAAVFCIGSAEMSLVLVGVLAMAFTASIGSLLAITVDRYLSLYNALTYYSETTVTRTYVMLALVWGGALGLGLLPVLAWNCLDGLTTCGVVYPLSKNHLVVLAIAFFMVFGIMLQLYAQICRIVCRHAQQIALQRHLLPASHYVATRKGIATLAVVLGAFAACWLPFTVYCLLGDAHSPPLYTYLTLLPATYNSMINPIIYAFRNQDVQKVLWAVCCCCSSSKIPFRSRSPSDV

Question: With `Cn1cc(-c2nc3cc(C(=O)C(C)(C)O)ncc3nc2N2CCN(Cc3ccc(F)cc3F)CC2)cn1` [Compound 563, 1-(3-{4-[(2,4-difluorophenyl)methyl]-1-piperazinyl}-2-(1-methyl-4-pyrazolyl)-1,4,6-triaza-7-naphthyl)-2-hydroxy-2-methyl-1-propanone] as the compound, how does the IC50 [1] read?
Answer: 100 to 1000 nM

Question: What about the IC50 [2] of the same compound?
Answer: 1000 to 30000 nM

Question: Which IC50 [1] does the source give for `CC(C)(O)C(=O)c1cc2nc(N3CCN(Cc4ccc(F)cc4F)CC3)c(-c3cnn(C(F)F)c3)nc2cn1` [Compound 566, 1-{3-[1-(difluoromethyl)-4-pyrazolyl]-2-{4-[(2,4-difluorophenyl)methyl]-1-piperazinyl}-1,4,6-triaza-7-naphthyl}-2-hydroxy-2-methyl-1-propanone] here?
Answer: 100 to 1000 nM

Question: And the IC50 [2]?
Answer: 1000 to 30000 nM

Question: What does the source list for `COCC(C)(O)c1cc2nc(N3CCC(Oc4ccc(F)cc4F)CC3)c(-c3cnn(C)c3)nc2cn1` (stereo not shown) [Compound 567, 2-{2-[4-(2,4-difluorophenoxy)-1-piperidyl]-3-(1-methyl-4-pyrazolyl)-1,4,6-triaza-7-naphthyl}-1-methoxy-2-propanol]?
Answer: IC50 [1]: 100 to 1000 nM; IC50 [2]: 1000 to 30000 nM

Question: For `CC(C)(O)C(=O)c1cc2nc(N3CCN(Cc4ccc(F)cc4F)CC3)c(-c3cnn(CF)c3)nc2cn1` [Compound 568, 1-(2-{4-[(2,4-difluorophenyl)methyl]-1-piperazinyl}-3-[1-(fluoromethyl)-4-pyrazolyl]-1,4,6-triaza-7-naphthyl)-2-hydroxy-2-methyl-1-propanone], which IC50 [1] is on record?
Answer: 100 to 1000 nM

Question: And the IC50 [2]?
Answer: 1000 to 30000 nM

Question: For `Cn1cc(-c2nc3ccc(C(O)C(C)(C)O)nc3nc2N2CCN(Cc3ccc(F)cc3F)CC2)cn1` (stereo not shown) [Compound 569, 1-(3-{4-[(2,4-difluorophenyl)methyl]-1-piperazinyl}-2-(1-methyl-4-pyrazolyl)-1,4,5-triaza-6-naphthyl)-2-methyl-1,2-propanediol], which IC50 [1] is on record?
Answer: 1000 to 30000 nM

Question: What about the IC50 [2] of the same compound?
Answer: ≥ 30000 nM

Question: For `CC(=O)N1CCc2nc(N3CCN(Cc4cc(Cl)ccc4Cl)CC3)c(-c3ccc(F)c(N)n3)nc2C1` [Compound 580, 1-[3-(6-amino-5-fluoro-2-pyridyl)-2-{4-[(2,5-dichlorophenyl)methyl]-1-piperazinyl}-5,6,7,8-tetrahydro-1,4,6-triaza-6-naphthyl]-1-ethanone], which IC50 [1] is on record?
Answer: < 100 nM

Question: What about the IC50 [2] of the same compound?
Answer: 1000 to 30000 nM

Question: `CC(=O)N1CCc2nc(N3CCN(Cc4cc(F)ccc4F)CC3)c(-c3ccc(F)c(N)n3)nc2C1` [Compound 581, 1-[3-(6-amino-5-fluoro-2-pyridyl)-2-{4-[(2,5-difluorophenyl)methyl]-1-piperazinyl}-5,6,7,8-tetrahydro-1,4,6-triaza-6-naphthyl]-1-ethanone] was tested. Which IC50 [1] did it give?
Answer: < 100 nM

Question: And the IC50 [2]?
Answer: 1000 to 30000 nM

Question: Which results are given for `CC(=O)N1CCc2nc(N3CCN(Cc4cc(Cl)ccc4F)CC3)c(-c3ccc(F)c(N)n3)nc2C1` [Compound 582, 1-[3-(6-amino-5-fluoro-2-pyridyl)-2-{4-[(5-chloro-2-fluorophenyl)methyl]-1-piperazinyl}-5,6,7,8-tetrahydro-1,4,6-triaza-6-naphthyl]-1-ethanone]?
Answer: IC50 [1]: < 100 nM; IC50 [2]: 1000 to 30000 nM

Question: How did the IC50 [1] turn out when `Cn1cc(-c2nc3ccc(C(O)C(C)(C)O)nc3nc2N2CCC(Oc3ccc(F)cc3F)CC2)cn1` (stereo not shown) [Compound 587, 1-{3-[4-(2,4-difluorophenoxy)-1-piperidyl]-2-(1-methyl-4-pyrazolyl)-1,4,5-triaza-6-naphthyl}-2-methyl-1,2-propanediol] was run?
Answer: 1000 to 30000 nM

Question: What about the IC50 [2] of the same compound?
Answer: 1000 to 30000 nM

Question: For `Cn1cc(-c2nc3cc(C(C)(O)C(C)(C)O)ncc3nc2N2CCN(Cc3ccc(F)cc3F)CC2)cn1` (stereo not shown) [Compound 604, 2-(3-{4-[(2,4-difluorophenyl)methyl]-1-piperazinyl}-2-(1-methyl-4-pyrazolyl)-1,4,6-triaza-7-naphthyl)-3-methyl-2,3-butanediol], which IC50 [1] is on record?
Answer: 100 to 1000 nM

Question: What about the IC50 [2] of the same compound?
Answer: 1000 to 30000 nM

Question: How did the IC50 [1] turn out when `CC(C)(O)C(C)(O)c1cc2nc(N3CCN(Cc4ccc(F)cc4F)CC3)c(-c3cnn(C4CC4)c3)nc2cn1` (stereo not shown) [Compound 605, 2-[3-(1-cyclopropyl-4-pyrazolyl)-2-{4-[(2,4-difluorophenyl)methyl]-1-piperazinyl}-1,4,6-triaza-7-naphthyl]-3-methyl-2,3-butanediol] was run?
Answer: 100 to 1000 nM

Question: What about the IC50 [2] of the same compound?
Answer: 1000 to 30000 nM
